Earlier results as cited in article PMC5796656 (Journal of the American Chemical Society, 2015).

Settings: ref [26]

τM: 243 ns
SMILES: O=C([O-])CN1CCN(CC(=O)[O-])CCN(CC(=O)[O-])CCN(CC(=O)[O-])CC1.[Gd+3] [GdDOTA]
